Assay results published in ChEMBL document CHEMBL3352677, “Thiazolidine-2,4-diones as multi-targeted scaffold in medicinal chemistry: Potential anticancer agents” (2014).
Values after ≈ are worked out from the molar mass of the structure shown.

Test system: Artemia
Assay: Cytotoxicity in brine shrimps larvae assessed as mortality after 24 hrs
Assay type: functional
Conditions: read-out: ED50 (the source's name)

| Structure (SMILES) | EC50 |
| --- | --- |
| O=C1NC(=O)/C(=C/c2ccc(/C=C/C(=O)c3cccc(F)c3)cc2)S1 | 4 µg/mL (≈ 11.3 µM) |
| O=C1NC(=O)/C(=C/c2ccc(/C=C/C(=O)c3ccc(F)cc3)cc2)S1 | 4 µg/mL (≈ 11.3 µM) |
| O=C1NC(=O)/C(=C/c2ccc(/C=C/C(=O)c3cccs3)cc2)S1 | 4 µg/mL (≈ 11.7 µM) |
| COc1cc([C@@H]2c3cc4c(cc3[C@H](O)[C@H]3COC(=O)[C@H]23)OCO4)cc(OC)c1OC [PODOFILOX] | 3.61 µg/mL (≈ 8.71 µM) |
